Experimental data taken from ChEMBL document CHEMBL3885881, “DrugMatrix”.

Species: Rattus norvegicus
Assay: DrugMatrix - Regimen: Daily Repeat
Type: toxicity, organism-based, Sprague-Dawley
Design: regimen Daily Repeat, gender Male, age 6-8 weeks
Conditions: in vivo, po, route oral GAVAGE, vehicle 100 % SALINE; for ABSOLUTE BASOPHIL / ABSOLUTE EOSINOPHIL / ABSOLUTE LYMPHOCYTE / ABSOLUTE MONOCYTE / ABSOLUTE SEGMENTED NEUTROPHIL / BASOPHIL / EOSINOPHIL / ERYTHROCYTE COUNT / HEMATOCRIT / HEMOGLOBIN / LEUKOCYTE COUNT / LYMPHOCYTE / MEAN CORPUSCULAR HEMOGLOBIN / MEAN CORPUSCULAR HEMOGLOBIN CONCENTRATION / MONOCYTE / NEUTROPHIL / NUCLEATED RED BLOOD CELLS / PLATELET COUNT: tissue Blood; for ALANINE AMINOTRANSFERASE / ALBUMIN / ALKALINE PHOSPHATASE / ASPARTATE AMINOTRANSFERASE / BLOOD UREA NITROGEN / CARBON DIOXIDE / CHOLESTEROL / CREATINE PHOSPHOKINASE / CREATININE / GLUCOSE / LACTATE DEHYDROGENASE / LIPASE / POTASSIUM / SODIUM / TOTAL BILIRUBIN / TOTAL PROTEIN / URIC ACID: tissue Plasma
[1] = 0 mg/kg, 72 h, dose level Control, time 3 day
[2] = 0 mg/kg, 120 h, dose level Control, time 5 day
[3] = 330 mg/kg, 72 h, dose level Low, time 3 day

In the case of `Nc1nc2c(ncn2COCCO)c(=O)[nH]1` [ACYCLOVIR], the “ABSOLUTE BASOPHIL” value [1] was 0 CELLS/uL, the “ABSOLUTE EOSINOPHIL” value [1] was 37 CELLS/uL and the “ABSOLUTE LYMPHOCYTE” value [1] was 12359.33 CELLS/uL. The “ABSOLUTE MONOCYTE” value [1] was 122.67 CELLS/uL, the “ABSOLUTE SEGMENTED NEUTROPHIL” value [1] was 847.67 CELLS/uL and the BASOPHIL [1] was 0%. For the same molecule, the EOSINOPHIL [1] was 0.33%, the “ERYTHROCYTE COUNT” value [1] was 5.75 x10E6/uL and the HEMATOCRIT [1] was 36.08%. The HEMOGLOBIN [1] was 14.07 G/DL, the “LEUKOCYTE COUNT” value [1] was 13.37 x10E3/uL and the LYMPHOCYTE [1] was 92.5%. The “MEAN CORPUSCULAR HEMOGLOBIN” value [1] was 24.47 pg, the “MEAN CORPUSCULAR HEMOGLOBIN CONCENTRATION” value [1] was 38.98 G/DL and the MONOCYTE [1] was 1%. For the same molecule, the NEUTROPHIL [1] was 6.17%, the “NUCLEATED RED BLOOD CELLS” value [1] was 0.17 /100WBC and the “PLATELET COUNT” value [1] was 1202.17 x10E3/uL. The “ALANINE AMINOTRANSFERASE” value [1] was 50.67 u/L, the ALBUMIN [1] was 4.13 G/DL and the “ALKALINE PHOSPHATASE” value [1] was 356.33 u/L. The “ASPARTATE AMINOTRANSFERASE” value [1] was 78.17 u/L, the “BLOOD UREA NITROGEN” value [1] was 14.17 mg/dL and the “CARBON DIOXIDE” value [1] was 31.33 mmol/L. For the same molecule, the CHOLESTEROL [1] was 76.5 mg/dL, the “CREATINE PHOSPHOKINASE” value [1] was 248.33 u/L and the CREATININE [1] was 0.2 mg/dL. The GLUCOSE [1] was 144 mg/dL, the “LACTATE DEHYDROGENASE” value [1] was 107 u/L and the LIPASE [1] was 9.83 u/L. The POTASSIUM [1] was 6.75 MEQ/L, the SODIUM [1] was 142 MEQ/L and the “TOTAL BILIRUBIN” value [1] was 0.18 mg/dL. The “TOTAL PROTEIN” value [1] was 5.98 G/DL, the “URIC ACID” value [1] was 1.42 mg/dL and the “ABSOLUTE BASOPHIL” value [2] was 0 CELLS/uL. The “ABSOLUTE EOSINOPHIL” value [2] was 0 CELLS/uL, the “ABSOLUTE LYMPHOCYTE” value [2] was 8681.17 CELLS/uL and the “ABSOLUTE MONOCYTE” value [2] was 79.83 CELLS/uL. The “ABSOLUTE SEGMENTED NEUTROPHIL” value [2] was 689 CELLS/uL, the BASOPHIL [2] was 0% and the EOSINOPHIL [2] was 0%. The “ERYTHROCYTE COUNT” value [2] was 5.49 x10E6/uL, the HEMATOCRIT [2] was 33.55% and the HEMOGLOBIN [2] was 13.1 G/DL. For the same molecule, the “LEUKOCYTE COUNT” value [2] was 9.45 x10E3/uL, the LYMPHOCYTE [2] was 92.33% and the “MEAN CORPUSCULAR HEMOGLOBIN” value [2] was 23.92 pg. For the same molecule, the “MEAN CORPUSCULAR HEMOGLOBIN CONCENTRATION” value [2] was 39.07 G/DL, the MONOCYTE [2] was 0.67% and the NEUTROPHIL [2] was 7%. The “NUCLEATED RED BLOOD CELLS” value [2] was 0.17 /100WBC, the “PLATELET COUNT” value [2] was 1001.17 x10E3/uL and the “ALANINE AMINOTRANSFERASE” value [2] was 49.33 u/L. The ALBUMIN [2] was 4.07 G/DL, the “ALKALINE PHOSPHATASE” value [2] was 300.33 u/L and the “ASPARTATE AMINOTRANSFERASE” value [2] was 83.5 u/L. For the same molecule, the “BLOOD UREA NITROGEN” value [2] was 16 mg/dL, the “CARBON DIOXIDE” value [2] was 29.67 mmol/L and the CHOLESTEROL [2] was 74.33 mg/dL. The “CREATINE PHOSPHOKINASE” value [2] was 489.67 u/L, the CREATININE [2] was 0.35 mg/dL and the GLUCOSE [2] was 151 mg/dL. The “LACTATE DEHYDROGENASE” value [2] was 133.67 u/L, the LIPASE [2] was 11.17 u/L and the POTASSIUM [2] was 5.5 MEQ/L. The SODIUM [2] was 145.7 MEQ/L, the “TOTAL BILIRUBIN” value [2] was 0.2 mg/dL and the “TOTAL PROTEIN” value [2] was 6.05 G/DL. The “URIC ACID” value [2] was 0.68 mg/dL, the “ABSOLUTE BASOPHIL” value [3] was 0 CELLS/uL and the “ABSOLUTE EOSINOPHIL” value [3] was 0 CELLS/uL. The “ABSOLUTE LYMPHOCYTE” value [3] was 14421.67 CELLS/uL, the “ABSOLUTE MONOCYTE” value [3] was 118.67 CELLS/uL and the “ABSOLUTE SEGMENTED NEUTROPHIL” value [3] was 559.67 CELLS/uL. The BASOPHIL [3] was 0%, the EOSINOPHIL [3] was 0% and the “ERYTHROCYTE COUNT” value [3] was 5.8 x10E6/uL. The HEMATOCRIT [3] was 35.43%, the HEMOGLOBIN [3] was 13.97 G/DL and the “LEUKOCYTE COUNT” value [3] was 15.1 x10E3/uL. For the same molecule, the LYMPHOCYTE [3] was 95%, the “MEAN CORPUSCULAR HEMOGLOBIN” value [3] was 24.1 pg and the “MEAN CORPUSCULAR HEMOGLOBIN CONCENTRATION” value [3] was 39.4 G/DL. The MONOCYTE [3] was 0.67%, the NEUTROPHIL [3] was 4.33% and the “NUCLEATED RED BLOOD CELLS” value [3] was 0 /100WBC. For the same molecule, the “PLATELET COUNT” value [3] was 1133.33 x10E3/uL, the “ALANINE AMINOTRANSFERASE” value [3] was 50 u/L and the ALBUMIN [3] was 4.3 G/DL. The “ALKALINE PHOSPHATASE” value [3] was 334 u/L, the “ASPARTATE AMINOTRANSFERASE” value [3] was 88.67 u/L and the “BLOOD UREA NITROGEN” value [3] was 17.33 mg/dL. For the same molecule, the “CARBON DIOXIDE” value [3] was 25.67 mmol/L, the CHOLESTEROL [3] was 70 mg/dL and the “CREATINE PHOSPHOKINASE” value [3] was 328.33 u/L. The CREATININE [3] was 0.34 mg/dL, the GLUCOSE [3] was 183 mg/dL and the “LACTATE DEHYDROGENASE” value [3] was 177.67 u/L. It also gave an LIPASE [3] of 10.33 u/L, a POTASSIUM [3] of 5.7 MEQ/L and an SODIUM [3] of 144.1 MEQ/L. The “TOTAL BILIRUBIN” value [3] was 0.13 mg/dL, the “TOTAL PROTEIN” value [3] was 6.17 G/DL and the “URIC ACID” value [3] was 2.2 mg/dL.
